According to patent US9181263B2, “Inhibitors of bruton's tyrosine kinase” (PHARMACYCLICS, INC., priority 2007, dated 2015):
“Also recorded” adds a separate entry of the source.

What was measured:
[1] = system: DOHH2 xenograft; test: DOHH2 lymphoma xenograft model; type: in vivo; conditions: DOHH2 xenograft in SCID mice, dosed orally
[2] = system: DLCL2 xenograft; test: DLCL2 lymphoma xenograft model; type: in vivo; conditions: DLCL2 xenograft in SCID mice, dosed orally
[3] = Glutathione binding assay; type: physicochemical; conditions: 5 mM glutathione, 10 μM inhibitor, potassium phosphate buffer, room temperature, HPLC
Procedure: A calculated value (e.g (1/Btk IC50)/Glutathione conjugation rate) as shown in the Table 2) is used to compare compounds for their ratio between potency at inhibiting their target and their non-specific binding to other SH groups, such as those in glutathione. […] Calculated ratios such as these are used to quantitatively compare different compounds and select compounds for further study.
For the glutathione binding assays, 5 mM glutathione, 10 μM Btk inhibitor in DMSO (10 μL) and 6 equivalents of N′N′ Diisopropyl ethyl amine were combined in 1 mL potassium phosphate buffer. The mixture was incubated for 0, 15, 60 minutes at room temperature and the reaction was stopped with 10 equivalents of formic acid. 50 μL of each reaction mixture was injected on HPLC (Mobil Phase A: 0.2% formic acid in water, Mobile Phase B: 0.2% formic acid in acetonitrile, HPLC Column: Metasil Basic 3μ, 150×4.6 mm, 10% B, Gradient: 10% to 90% B, Detection: UV/Vis […]). Rate of reaction was reported as nmole GSH conjugate conversion per minute from the normalized ratio for area under the curve from HPLC chromatograms for both GSH conjugate and the parent.

[4] = system: pERK / BCR signal transduction pathway in Ramos cells; test: BCR pathway phosphorylation (phospho-specific antibodies) in Ramos; type: cell-based
Source text: (§1) To identify biomarkers that correlate with response to Compound 1, phosphorylation events in the BCR signal transduction pathway were investigated.
(§2) However, when we examined basal phosphorylation levels, we found higher basal phosphorylation in DOHH2 compared to Ramos, with phospho-ERK in particular indicating higher levels of basal or tonic signaling in DOHH2.

[5] = system: Btk expressing B cell lymphoma cell lines; test: Panel of nine Btk expressing B cell lymphoma cell lines, sensitivity vs basal pERK; type: cell-based
Procedure: (§3) After 72 hours, cell number was measured using Alamar Blue using manufacturer's protocol. A dilution series of untreated cells was run in parallel to verify that the Alamar Blue assay reliably reflected cell number and that growth conditions were not limiting. […] GI50 values were confirmed in two or more separate experiments for each cell line.
A panel of nine Btk expressing B cell lymphoma cell lines was screened for basal pERK levels.

[6] = system: Ramos cells; test: Cell proliferation, Ramos cell line; type: cell-based
Procedure: as §3, §1

[7] = system: collagen-induced arthritis (paw inflammation); test: Collagen-induced arthritis in the mouse; type: in vivo, male DBA/1OlaHsd mice
Procedure: […]. Compound for vehicle was dosed orally once per day starting at day 1. Dexamethasone was included as a positive control. Paw inflammation was scored from 0-5 and averaged across all paws from all animals for each group in the study.
. After paw inflammation was established, animals were randomized and Compound for vehicle was dosed orally once per day starting at day 1. Paw inflammation was scored from 0-5 and averaged across all paws from all animals for each group in the study. […] Dexamethasone was included as a positive control.

[8] = Plasma concentrations after oral dosing of rats; type: in vivo, male jugular vein cannulated rats; conditions: rat plasma, single 8 mg/kg dose by oral gavage, dosed in combination
Procedure: Blood samples were collected at 0.0833 (5 minutes), 0.333 (20 minutes), 1, 3, 6, 9, and 24 hours post-dosing from orally dosed rats.
Male jugular vein cannulated rats were administered a single dose of all test compounds at 8 mg/kg each, in combination by oral gavage. Dose volumes were adjusted based on body weight data collected immediately prior to dosing. Blood samples were collected at 0.0833 (5 minutes), 0.333 (20 minutes), 1, 3, 6, 9, and 24 hours post-dosing from orally dosed rats. The samples were collected into plasma separator Microtainer tubes with anticoagulant (lithium heparin). Plasma samples were prepared by centrifugation (5 min at 5000×g), and at least 100 μL were transferred to storage tubes and stored frozen at −80° C. Plasma samples were thawed and 75 uL aliquots were transferred to centrifuge tubes to which 10 μL aliquots of internal standard solution (1 μg/mL) were added. The samples were not diluted with blank plasma prior to further processing. Soluble proteins were precipitated by the addition of 200 μL of acetonitrile, followed by centrifugation (20 min at 16,000×g). The samples were evaporated to dryness and reconstituted in 200 μL of water containing 0.2% formic acid and 10% methanol. All samples were loaded onto an autosampler maintained at 6° C. and evaluated for concentrations of test compounds using LC-MS/MS.

[9] = system: MRL/lpr model of lupus (proteinuria); test: Mouse MRL/lpr model of lupus; type: in vivo, MRL/lpr mice
Source text: FIG. 3 presents an illustrative line graph showing inhibition of disease progression in a mouse MRL/lpr model of lupus.

[10] = system: mast cell degranulation; test: Mouse passive cutaneous anaphylaxis model; type: in vivo, mice; conditions: single oral dose, increasing doses, 1 hour before DNP-BSA challenge
Procedure: FIG. 4 presents an illustrative bar graph showing inhibition of mast cell degranulation in a mouse passive cutaneous anaphylaxis model. […] After one hour, animals were challenged with an intravenous injection of DNP-BSA and Evans Blue dye and the area of extravasation was measured.
Mice were sensitized with an intradermal injection of monoclonal anti-DNP-IgE in the back. […] After one hour, animals were challenged with an intravenous injection of DNP-BSA and Evans Blue dye. Mast cell degranulation leads to vascular permeability and the distribution of the dye into the skin of the back. The area of extravasation after 1 hour is measured.

[11] = system: lymphoma cell lines; test: In vitro cell proliferation, variety of lymphoma cell lines; type: cell-based; conditions: 72 hours
Procedure: as §3

[12] = system: normal human B cells; test: B cell activation after brief exposure and washout (CD69); type: cell-based; conditions: 1 hour exposure, washed three times, then IgM F(ab')2 stimulation for 18 hours
Procedure: (§4) B cells were purified from blood from healthy donors by negative selecting using the RosetteSep Human B cell enrichment cocktail. […] After incubation for 1 hour at 37° C., cells were washed three times using an 8-fold dilution in growth media for each wash. Cells were then stimulated with IgM F(ab′)2 for 18 hours at 37° C., stained with anti-CD69-PE antibody and analyzed by flow cytometry.
as §4, with “stimulated with 10 ug/ml of IgM F(ab′)2” for “stimulated with IgM F(ab′)2”, “at 37° C. Cells were then stained with” for “at 37° C., stained with”, “by flow cytometry using standard conditions.” for “by flow cytometry.”

[13] = system: pERK / BCR signal transduction pathway in DOHH2 cells; test: BCR pathway phosphorylation (phospho-specific antibodies) in DOHH2; type: cell-based
Source text: as §1, §2

[14] = biological target: panel of greater than 100 kinases (Tec family kinases including Btk, Src family kinases); test: In vitro profiling against a panel of greater than 100 kinases; type: biochemical
Source text: By way of example only and in some embodiments, the observed potency, selectivity, and cell permeability of compounds such as Compound 2 are appropriate to incorporate these molecules into a Kinase-targeted, activity based probe that allows direct visualization of Kinase activity in intact cells. […] Without limiting the scope of the compositions and methods described herein, it is postulated that the structural basis for the selectivity is covalent modification of a non-catalytic cysteine residue (Cys 481 in Btk) that is conserved in the ATP binding pocket of the Tec family and several other kinases.

[15] = biological target: EGFR (Homo sapiens (Human), UniProt P00533); test: HotSpot kinase assay, EGFR; type: biochemical; conditions: purified enzyme, 33P-ATP, 1 uM ATP; printed EFGR in Table 1
Sequence of EGFR (P00533 25-1210): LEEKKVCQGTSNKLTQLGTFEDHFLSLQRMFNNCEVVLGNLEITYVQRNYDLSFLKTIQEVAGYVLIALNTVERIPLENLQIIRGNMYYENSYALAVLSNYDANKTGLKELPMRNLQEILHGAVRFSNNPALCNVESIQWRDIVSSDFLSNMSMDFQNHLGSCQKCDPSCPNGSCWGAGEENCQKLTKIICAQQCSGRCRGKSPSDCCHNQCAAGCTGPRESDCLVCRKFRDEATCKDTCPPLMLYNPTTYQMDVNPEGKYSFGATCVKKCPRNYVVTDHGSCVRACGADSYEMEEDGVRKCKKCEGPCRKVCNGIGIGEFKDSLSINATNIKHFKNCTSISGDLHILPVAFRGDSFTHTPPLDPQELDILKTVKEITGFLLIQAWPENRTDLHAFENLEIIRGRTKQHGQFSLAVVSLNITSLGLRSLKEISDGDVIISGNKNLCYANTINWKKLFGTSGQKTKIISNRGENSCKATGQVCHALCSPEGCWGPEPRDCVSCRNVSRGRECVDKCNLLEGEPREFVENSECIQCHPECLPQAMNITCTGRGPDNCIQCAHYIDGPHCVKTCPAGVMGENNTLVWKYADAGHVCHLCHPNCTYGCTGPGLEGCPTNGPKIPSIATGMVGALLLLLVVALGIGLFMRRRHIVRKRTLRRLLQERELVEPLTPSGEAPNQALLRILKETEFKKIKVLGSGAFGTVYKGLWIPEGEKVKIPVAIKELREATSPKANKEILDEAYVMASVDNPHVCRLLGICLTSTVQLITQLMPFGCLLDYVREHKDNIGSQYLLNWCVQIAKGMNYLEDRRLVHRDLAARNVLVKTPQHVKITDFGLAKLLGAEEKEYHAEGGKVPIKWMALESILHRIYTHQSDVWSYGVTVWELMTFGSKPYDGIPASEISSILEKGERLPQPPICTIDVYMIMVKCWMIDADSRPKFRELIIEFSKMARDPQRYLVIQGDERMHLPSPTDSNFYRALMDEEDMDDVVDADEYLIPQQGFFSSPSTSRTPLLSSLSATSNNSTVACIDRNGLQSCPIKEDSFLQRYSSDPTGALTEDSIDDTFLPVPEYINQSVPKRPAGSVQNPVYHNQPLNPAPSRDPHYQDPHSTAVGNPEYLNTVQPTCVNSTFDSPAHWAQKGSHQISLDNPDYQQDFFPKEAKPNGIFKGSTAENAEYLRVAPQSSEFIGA

[16] = biological target: BTK (Homo sapiens (Human), UniProt Q06187); test: HotSpot kinase assay, BTK; type: biochemical; conditions: purified enzyme, 33P-ATP, 1 uM ATP
Sequence of BTK (Q06187 whole entry): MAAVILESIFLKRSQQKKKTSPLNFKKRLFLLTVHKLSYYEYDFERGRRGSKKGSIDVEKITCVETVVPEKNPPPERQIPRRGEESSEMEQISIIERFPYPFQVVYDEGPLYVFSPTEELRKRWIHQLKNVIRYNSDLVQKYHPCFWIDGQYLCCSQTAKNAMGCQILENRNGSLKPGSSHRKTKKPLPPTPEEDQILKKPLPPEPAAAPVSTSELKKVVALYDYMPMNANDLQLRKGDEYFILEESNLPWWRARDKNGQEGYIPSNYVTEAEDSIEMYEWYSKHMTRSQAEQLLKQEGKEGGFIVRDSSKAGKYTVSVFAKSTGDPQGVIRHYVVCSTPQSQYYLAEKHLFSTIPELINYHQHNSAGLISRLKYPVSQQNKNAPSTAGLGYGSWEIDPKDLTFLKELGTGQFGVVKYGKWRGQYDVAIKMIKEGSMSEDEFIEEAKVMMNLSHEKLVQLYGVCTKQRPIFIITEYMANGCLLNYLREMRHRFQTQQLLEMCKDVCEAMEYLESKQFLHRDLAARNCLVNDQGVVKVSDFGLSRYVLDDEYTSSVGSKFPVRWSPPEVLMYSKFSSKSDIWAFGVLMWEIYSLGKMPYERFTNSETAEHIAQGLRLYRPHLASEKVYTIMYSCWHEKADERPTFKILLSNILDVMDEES

[17] = system: Egr-1; test: Expression of ERK transcriptional target Egr-1; type: cell-based; conditions: 1 uM
[18] = 12.5 mg/kg orally once per day, to day 11
[19] = 50 mg/kg orally once per day, to day 11

## C=CC(=O)N1CCC[C@@H](n2nc(-c3ccc(Oc4ccccc4)cc3)c3c(N)ncnc32)C1 [Compound 1]
[1]
  tumor growth: inhibition of tumor growth; also recorded: inhibits tumor growth
[2]
  tumor growth: inhibition of tumor growth; also recorded: inhibits tumor growth
[3]
  Glutathione Conj Rate: 0.398 nmol/min
[4]; Ramos, anti-IgM or anti-IgG cross-linking
  BCR-stimulus induced phosphorylation events: inhibits most BCR-stimulus induced phosphorylation events
[5]; 5 of the seven lines with significantly higher basal pERK
  GI50: < 1300 nM
[5]; the two cell lines with low pERK levels
  sensitivity of cell lines to compound: resistant
[6]
  sensitivity of cell line to compound: resistant
[7]; 3.125 mg/kg orally once per day, to day 11
  paw inflammation: significantly reduced the increase in paw inflammation
[7]; 12.5 mg/kg intermittent dosing: days 1, 2, 3 or days 9, 10, 11 of an 11-day period
  paw inflammation: reduced the increase in paw inflammation
[7]; [18]
  paw inflammation: regressed inflammation
[7]; [19]
  paw inflammation: regressed inflammation
[8]
  in vivo half-life: short half-life in vivo
[9]; 3.125 mg/kg orally once per day until 20 weeks of age
  proteinuria (urine protein levels): significantly reduced proteinuria
[9]; 12.5 mg/kg orally once per day until 20 weeks of age
  proteinuria (urine protein levels): significantly reduced proteinuria
[9]; 50 mg/kg orally once per day until 20 weeks of age
  proteinuria (urine protein levels): significantly reduced proteinuria
[10]
  amount of Evans Blue release (area of extravasation): significantly decrease the amount of Evans Blue release
[11]
  lymphoma tumor cell growth: inhibits lymphoma tumor cell growth
[12]
  B cell activation (CD69): sufficient to inhibit B cell activation
[13]; DOHH2, anti-IgM or anti-IgG cross-linking
  BCR-stimulus induced phosphorylation events: inhibits most BCR-stimulus induced phosphorylation events

## CN(C)C/C=C/C(=O)N1CCC[C@@H](n2nc(-c3ccc(Oc4ccccc4)cc3)c3c(N)ncnc32)C1 [Compound 2]
[14]
  kinase panel profile: highly potent and selective inhibitor of Tec family kinases, including, Btk, as well as Src family kinases

## CN(C/C=C/C(=O)N1CCCC(n2nc(-c3ccc(Oc4ccccc4)cc3)c3c(N)ncnc32)C1)CCO (centres unmarked) [Compound 3]
[15]
  IC50: 74.5 nM
[16]
  IC50: 2.1 nM

## Nc1ncnc2c1c(-c1ccc(Oc3ccccc3)cc1)nn2C1CCCN(C(=O)/C=C/c2c[nH]cn2)C1 (centres unmarked) [Compound 4]
[17]
  time to reduced Egr-1 expression: ≤ 1 h
[17]; achieved by 4 hr
  maximal downregulation of Egr-1 expression: 10 fold
[4]; unstimulated Ramos cells (basal)
  decrease of pERK levels: not
[13]; unstimulated DOHH2 cells (basal), read-out: pERK levels IC50
  IC50: < 10 nM
[16]
  IC50: 22.2 nM

## Nc1ncnc2c1c(-c1ccc(Oc3ccccc3)cc1)nn2C1CCCN(C(=O)/C=C/CN2CCOCC2)C1 (centres unmarked) [Compound 5, (E)-1-(3-(4-amino-3-(4-phenoxyphenyl)-1H-pyrazolo[3,4-d]pyrimidin-1-yl)piperidin-1-yl)-4-morpholinobut-2-en-1-one]
[3]
  Glutathione Conj Rate: 0.004 nmol/min

## C=CC(=O)N1CCC(n2nc(-c3ccc(Oc4ccccc4)cc3)c3c(N)ncnc32)CC1 [Compound 6]
[3]
  Glutathione Conj Rate: 0.39 nmol/min

## CN(C)C/C=C/C(=O)N1CCC(n2nc(-c3ccc(Oc4ccccc4)cc3)c3c(N)ncnc32)CC1 [Compound 7, (E)-1-(4-(4-amino-3-(4-phenoxyphenyl)-1H-pyrazolo[3,4-d]pyrimidin-1-yl)piperidin-1-yl)-4-(dimethylamino)but-2-en-1-one]
[3]
  Glutathione Conj Rate: 0.01 nmol/min
[8]
  in vivo half-life: significantly longer in vivo half-life

## CN(C)C/C=C/C(=O)N[C@H]1CC[C@@H](n2nc(-c3ccc(Oc4ccccc4)cc3)c3c(N)ncnc32)CC1 [Compound 8, (E)-N-((1s,4s)-4-(4-amino-3-(4-phenoxyphenyl)-1H-pyrazolo[3,4-d]pyrimidin-1-yl)cyclohexyl)-4-(dimethylamino)but-2-enamide]
[8]
  in vivo half-life: significantly longer in vivo half-life

## C=CC(=O)N[C@H]1CC[C@@H](n2nc(-c3ccc(Oc4ccccc4)cc3)c3c(N)ncnc32)CC1 [Compound 9]
[7]; [18]
  paw inflammation: reduced the increase in paw inflammation
[7]; [19]
  paw inflammation: reduced the increase in paw inflammation

## CN(C)C/C=C/C(=O)N1CCC[C@H]1Cn1nc(-c2ccc(Oc3ccccc3)cc2)c2c(N)ncnc21 [Compound 12, (E)-1-((S)-2-((4-amino-3-(4-phenoxyphenyl)-1H-pyrazolo[3,4-d]pyrimidin-1-yl)methyl)pyrolidin-1-yl)-4-(dimethylamino)but-2-en-1-one]
[3]
  Glutathione Conj Rate: 0.004361 nmol/min
[8]
  in vivo half-life: short half-life in vivo

## CC#CC(=O)N1CCC[C@@H](n2nc(-c3ccc(Oc4ccccc4)cc3)c3c(N)ncnc32)C1 [Compound 17, 1-((R)-3-(4-amino-3-(4-phenoxyphenyl)-1H-pyrazolo[3,4-d]pyrimidin-1-yl)piperidin-1-yl)but-2-yn-1-one]
[3]
  Glutathione Conj Rate: 0.0243 nmol/min

## CC#CC(=O)N[C@H]1CC[C@@H](n2nc(-c3ccc(Oc4ccccc4)cc3)c3c(N)ncnc32)CC1 [Compound 22, N-((1s,4s)-4-(4-amino-3-(4-phenoxyphenyl)-1H-pyrazolo[3,4-d]pyrimidin-1-yl)cyclohexyl)but-2-ynamide]
[3]
  Glutathione Conj Rate: 0.014 nmol/min
